Laboratory results from PubChem BioAssay AID588589 (The Scripps Research Institute Molecular Screening Center, 2011).
The source made the active and inactive calls. How the calls were made is not given here.

Test system: Fam108b (ABHD17B) [Mus musculus], recombinant soluble
Test: inhibition of soluble recombinant Fam108b, SAR follow-up, biochemical, gel-based ABPP, soluble form (AID 588589)
Conditions: fluorophosphonate probe, at 5 µM, hits give high values

Row | inhibition | Structure (SMILES)
1 | 0% (inactive) | O=c1oc(-c2cccc(Cl)c2)nc2scc(-c3ccc(Br)cc3)c12
2 | 5% (inactive) | Cc1ccc(-c2csc3nc(-c4ccc(C(C)(C)C)cc4)oc(=O)c23)cc1
3 | 0% (inactive) | COc1ccc(-c2csc3nc(-c4ccc(F)cc4)oc(=O)c23)cc1
4 | 0% (inactive) | COc1ccc(-c2csc3nc(-c4ccccc4Br)oc(=O)c23)cc1
5 | 15% (inactive) | Cc1ccccc1-c1nc2scc(-c3cccs3)c2c(=O)o1
6 | 0% (inactive) | CCOc1ccc(-c2csc3nc(-c4ccc(F)cc4)oc(=O)c23)cc1
7 | 25% (inactive) | Cc1nc2c(oc3ccccc32)c(=O)o1
8 | 40% (inactive) | O=c1oc(-c2cccs2)nc2cc(Cl)ccc12
9 | 5% (inactive) | CCOc1cc2nc(-c3ccccc3SC)oc(=O)c2cc1OCC
10 | 5% (inactive) | COc1ccc(-c2csc3nc(-c4cccc5ccccc45)oc(=O)c23)cc1OC
11 | 50% (inactive) | O=c1oc(-c2ccco2)nc2c1cnn2-c1ccccc1
12 | 5% (inactive) | CCOc1cccc(-c2nc3ccc(OC(C)=O)cc3c(=O)o2)c1
13 | 35% (inactive) | CCOc1ccc(-c2csc3nc(-c4ccccc4OC)oc(=O)c23)cc1
14 | 0% (inactive) | O=c1oc(-c2ccc([N+](=O)[O-])cc2)nc2c1cnn2-c1ccccc1
15 | 5% (inactive) | O=c1oc(-c2ccco2)nc2cccc(F)c12
16 | 0% (inactive) | Cc1nsc2nc(-c3ccccc3Cl)oc(=O)c12
17 | 15% (inactive) | Cc1nsc2nc(-c3cc(S(=O)(=O)N4CCCCC4)ccc3Cl)oc(=O)c12
18 | 10% (inactive) | Cc1nsc2nc(-c3cc(Cl)nnc3Cl)oc(=O)c12
19 | 40% (inactive) | Cc1nsc2nc(-c3cc4ccccc4nc3Cl)oc(=O)c12
20 | 0% (inactive) | CCN(CC)S(=O)(=O)c1ccc(Cl)c(-c2nc3snc(C)c3c(=O)o2)c1
21 | 0% (inactive) | O=c1oc(-c2ccc(F)cc2)nc2scc(-c3cccs3)c12
22 | 15% (inactive) | Cc1nsc2nc(-c3cc(F)c(F)cc3Cl)oc(=O)c12
23 | 5% (inactive) | Cc1nsc2nc(-c3cccnc3Cl)oc(=O)c12

Row | inhibition | Structure (SMILES)
24 | 10% (inactive) | Cc1nsc2nc(-c3cc(Br)cnc3Cl)oc(=O)c12
25 | 5% (inactive) | COc1ccc(-c2csc3nc(Cc4ccccc4)oc(=O)c23)cc1OC
26 | 0% (inactive) | O=C1CCC(=O)N1c1ccc(-c2nc3scc(-c4cccs4)c3c(=O)o2)cc1
27 | 50% (inactive) | O=c1oc(-c2ccccc2F)nc2scc(-c3ccc(Br)cc3)c12
28 | 10% (inactive) | Cc1nsc2nc(-c3ccc([N+](=O)[O-])cc3Cl)oc(=O)c12
29 | 35% (inactive) | O=c1oc(-c2ccccc2)nc2c1oc1ccccc12
30 | 80% | O=c1oc(-c2ccccc2F)nc2scc(-c3cccs3)c12
31 | 70% | O=c1oc(-c2cccc(F)c2)nc2c1cnn2-c1ccccc1
32 | 30% (inactive) | Cc1nsc2nc(-c3cc(S(=O)(=O)N(C)Cc4ccccc4)ccc3Cl)oc(=O)c12
33 | 0% (inactive) | O=c1oc(-c2ccc(-c3ccccc3)cc2)nc2scc(-c3ccccc3)c12
34 | 10% (inactive) | Cc1nsc2nc(-c3cc(S(=O)(=O)N(C)C)ccc3Cl)oc(=O)c12
35 | 5% (inactive) | O=c1oc(-c2cccc(Br)c2)nc2scc(-c3ccccc3)c12
36 | 0% (inactive) | COc1ccc(-c2csc3nc(-c4ccccc4C)oc(=O)c23)cc1
37 | 0% (inactive) | O=c1oc(-c2ccc(Br)cc2)nc2c1cnn2-c1ccccc1
38 | 10% (inactive) | O=c1oc(COc2ccccc2Cl)nc2ccccc12
39 | 0% (inactive) | COc1ccc(-c2csc3nc(-c4ccc(Cl)cc4)oc(=O)c23)cc1
40 | 0% (inactive) | COc1ccc(/C=C/c2nc3scc(-c4cccs4)c3c(=O)o2)cc1
41 | 0% (inactive) | CC(C)c1nsc2nc(-c3ccccc3Cl)oc(=O)c12
42 | 20% (inactive) | Cc1nsc2nc(-c3ccc(Cl)cc3Cl)oc(=O)c12
43 | 15% (inactive) | CCCc1nsc2nc(-c3ccccc3Cl)oc(=O)c12
44 | 0% (inactive) | CC(C)(C)c1ccc(-c2nc3sc4c(c3c(=O)o2)CCCC4)cc1
45 | 65% | Cc1nsc2nc(-c3cc(S(=O)(=O)N4CCCC4)ccc3Cl)oc(=O)c12
46 | 0% (inactive) | COc1cc(-c2nc3scc(-c4ccccc4)c3c(=O)o2)cc(OC)c1OC

Row | inhibition | Structure (SMILES)
47 | 0% (inactive) | COc1cc2nc(-c3ccc(C(C)(C)C)cc3)oc(=O)c2cc1OC
48 | 15% (inactive) | Cc1nsc2nc(-c3cc(Cl)ccc3Cl)oc(=O)c12
49 | 20% (inactive) | CCc1nsc2nc(-c3ccccc3Cl)oc(=O)c12
50 | 5% (inactive) | Cc1noc2nc(-c3ccccc3Cl)oc(=O)c12
51 | 0% (inactive) | COCc1nsc2nc(-c3ccccc3Cl)oc(=O)c12
52 | 40% (inactive) | O=c1oc(-c2ccccc2Cl)nc2c1oc1ccccc12
53 | 15% (inactive) | Cc1nsc2nc(-c3cc([N+](=O)[O-])ccc3Cl)oc(=O)c12
54 | 0% (inactive) | Cc1ccccc1-c1nc2scc(-c3ccc(Br)cc3)c2c(=O)o1
55 | 0% (inactive) | Cc1ccc(-c2nc3sc(C)c(C)c3c(=O)o2)cc1
56 | 5% (inactive) | Cc1nsc2nc(-c3cc(S(C)(=O)=O)ccc3Cl)oc(=O)c12
57 | 45% (inactive) | O=c1oc(-c2ccccn2)nc2ccccc12
58 | 70% | O=c1oc(-c2ccccc2)nc2c1cnn2-c1ccccc1
59 | 40% (inactive) | O=c1oc(-c2ccc(C(F)(F)F)cc2)nc2c1oc1ccc(Cl)cc12
60 | 0% (inactive) | O=C1OC(=O)c2cc(-c3nc4ccccc4c(=O)o3)ccc21
61 | 40% (inactive) | O=c1oc(-c2ccccc2)nc2c1oc1ccc(Cl)cc12
62 | 15% (inactive) | Cc1ccc2nc(-c3ccccc3Cl)oc(=O)c2c1
63 | 25% (inactive) | Cc1nsc2nc(-c3ccc(F)cc3Cl)oc(=O)c12
64 | 0% (inactive) | Cc1ccc(-c2csc3nc(-c4ccc(-c5ccccc5)cc4)oc(=O)c23)cc1
65 | 20% (inactive) | Cc1nsc2nc(-c3sc4ccccc4c3Cl)oc(=O)c12
66 | 10% (inactive) | O=c1oc(/C=C/c2ccccc2)nc2scc(-c3cccs3)c12
67 | 0% (inactive) | CC(C)(C)c1ccc(-c2nc3scc(-c4ccccc4)c3c(=O)o2)cc1
68 | 35% (inactive) | S=c1sc(-c2ccccc2Cl)nc2ccccc12
69 | 75% | O=c1oc(-c2ccccc2F)nc2c1cnn2-c1ccccc1

Row | inhibition | Structure (SMILES)
70 | 55% (inactive) | CCc1nc2sc(-c3ccccc3)c(-c3ccccc3)c2c(=O)o1
71 | 0% (inactive) | CC(=O)Oc1ccc2nc(-c3ccccc3)oc(=O)c2c1
72 | 80% | O=c1oc(-c2ccccc2Cl)nc2c1cnn2-c1ccccc1
73 | 70% | O=c1oc(-c2cccs2)nc2c1cnn2-c1ccccc1
74 | 0% (inactive) | O=C1CCC(=O)N1c1ccc(-c2nc3scc(-c4ccc(F)cc4)c3c(=O)o2)cc1
75 | 0% (inactive) | O=c1oc(-c2ccc(F)cc2)nc2scc(-c3ccc(Br)cc3)c12
76 | 55% (inactive) | O=c1oc(-c2cccs2)nc2scc(-c3ccccc3)c12
77 | 0% (inactive) | Cc1ccc(-c2nc3scc(-c4ccc(Br)cc4)c3c(=O)o2)cc1
78 | 0% (inactive) | O=c1oc(-c2ccc(Br)cc2)nc2scc(-c3cccs3)c12
79 | 70% | CC(C)(C)c1nc2scc(-c3ccccc3)c2c(=O)o1
80 | 50% (inactive) | O=C(Nc1cccc(-c2nc3ccccc3c(=O)o2)c1)c1ccccc1
81 | 5% (inactive) | CCOc1ccc(-c2csc3nc(-c4ccccc4C)oc(=O)c23)cc1
82 | 0% (inactive) | O=c1oc(-c2cc3ccccc3o2)nc2ccc(Br)cc12
83 | 65% | O=C1CCC(=O)N1c1ccc(-c2nc3scc(-c4ccccc4)c3c(=O)o2)cc1
84 | 0% (inactive) | COc1ccc(-c2csc3nc(-c4ccc(C)cc4)oc(=O)c23)cc1
85 | 20% (inactive) | O=c1oc(-c2cccc(Cl)c2)nc2c1cnn2-c1ccccc1
86 | 45% (inactive) | O=c1oc(Cc2ccccc2)nc2scc(-c3ccccc3)c12
87 | 15% (inactive) | COc1cc2nc(-c3ccccc3SC)oc(=O)c2cc1OC
88 | 0% (inactive) | COc1cc2nc(-c3c(OC)cccc3OC)oc(=O)c2cc1OC
89 | 10% (inactive) | CCCOc1cccc(-c2nc3cc(OC)c(OC)cc3c(=O)o2)c1
90 | 10% (inactive) | CSc1ccc(Cl)c(-c2nc3snc(C)c3c(=O)o2)c1
91 | 0% (inactive) | Cc1sc2nc(-c3ccc(-c4ccccc4)cc3)oc(=O)c2c1C
92 | 0% (inactive) | CC(C)(C)c1ccc(-c2nc3scc(-c4cccs4)c3c(=O)o2)cc1
